Measured values from patent US20060240463A1, “Markers associated with the therapeutic efficacy of glatiramer acetate” (Rappaport Family Institute for Research in the Medical …, priority 2005, published 2006).

Tests used:
[1] = system: skin graft, thyroid grafts; conditions: across minor and major histocompatibility barriers; cited from earlier work
dendritic cells = conditions: through modulation of dendritic cells; cited from earlier work
RR-MS patients [2] = test: European/Canadian MRI trial, GA-treated PGx cohort: response by SNP genotype ("combined" response definition); format: in vivo, human
Text: (§1) Two clinical trials, the European/Canadian trial and U.S. pivotal trial, were used to identify associations between GA responsiveness and SNPs in RR-MS patients. Caucasian patients, that had participated in one of two previously completed randomized, double blind, placebo-controlled, multi-centric clinical trials, were solicited to partake in the present study. In both clinical trials, patients were required to have a diagnosis of definite MS (Poser C M, et al. Ann Neurol., 13(3):227-31 (1983) and a relapsing-remitting course (Lublin F D and Reingold S C, Neurology 46(4):907-11 (1996). Ultimately, 73 and 101 DNA samples of Caucasian patients from the U.S. pivotal and European/Canadian MRI trials, respectively, were analyzed. GA dosage was consistent for both trials (i.e. daily 20-mg subcutaneous injection). Table I compares multiple variables between the general cohort study and the PGx cohort study for the European/Canadian trial and the U.S. pivotal trial.
(§2) Subjects were selected from two previously completed randomized, double blind, placebo-controlled, multi-centric clinical trials. In both clinical trials, patients were required to have a diagnosis of definite MS (Poser C M, et al. New diagnostic criteria for multiple sclerosis: guidelines for research protocols. Ann Neurol., (1983);13(3):227-31) and a relapsing-remitting course (Lublin F D, Reingold S C. Defining the clinical course of multiple sclerosis: results of an international survey. National Multiple Sclerosis Society (USA) Advisory Committee on Clinical Trials of New Agents in Multiple Sclerosis. Neurology, (1996);46(4):907-11) 85 (33.9%) out of 251 patients from the U.S. pivotal trial (Johnson K P, et al. Copolymer 1 reduces relapse rate and improves disability in relapsing-remitting multiple sclerosis: results of a phase 111 multicenter, double-blind placebo-controlled trial. The Copolymer 1 Multiple Sclerosis Study Group. Neurology, (1995);45(7):1268-76; Johnson K P, et al. Extended use of glatiramer acetate (COPAXONE) is well tolerated and maintains its clinical effect on multiple sclerosis relapse rate and degree of disability. Copolymer 1 Multiple Sclerosis Study Group. Neurology, (1998);50(3):701-8), and 108 (45.2%) out of 239 patients from the European/Canadian MRI trial (Comi G, Filippi M, Wolinsky J S. European/Canadian multicenter, double-blind, randomized, placebo-controlled study of the effects of glatiramer acetate on magnetic resonance imaging—measured disease activity and burden in patients with relapsing multiple sclerosis. European/Canadian glatiramer acetate Study Group. Ann Neurol., (2001);49(3):290-7) (including patients from Holland, Italy, Belgium, UK, Canada) consented to participate in this study. The same dosage of GA (i.e. daily 20-mg subcutaneous injection) was used in both trials. Although in the original trials patients were equally assigned to either GA- or placebo-treatment, the ratios in the current PGx study were 37:36 and 4952, for the U.S. pivotal and the European/Canadian MRI trials, respectively. Table I indicates various variables between the General Cohort study and the PGx Cohort study for both the European/Canadian trial and the U.S. pivotal trial.
(§3) The primary endpoint in the European/Canadian MRI trial was the accumulated number of TI-enhancing lesions during 9 months, and an additional inclusion criterion was used calling for the presence of at least one TI-enhancing lesion on MRI screening. The primary end-point for the U.S. pivotal trial was the annualized relapse-rate after two years of treatment.
(§4) The procedure used stringent definitions for response to GA therapy. […] For validation purposes response was also treated as a continuous variable where number of new T1-enhancing lesions within the third trimester was analyzed as the […] variable. […]

RR-MS = conditions: in vivo; cited from earlier work
[3] = system: MHC class II molecules on murine and human antigen-presenting cells; conditions: cited from earlier work
RR-MS patients [4] = test: European/Canadian MRI trial, GA-treated PGx cohort: response by SNP genotype ("T1 lesion-free" response definition); format: in vivo, human
Text: as §1, §2, §3, §4

[5] = system: murine models resembling inflammatory bowel disease; conditions: severe ulceration and inflammation; cited from earlier work
[6] = CD80_rs527004, GEN = 0, GA(N = 41)
[7] = CD80_rs527004, GEN = 1, GA(N = 41)
[8] = CD86_rs1129055, GEN = 0, GA(N-35)
[9] = CD86_rs1129055, GEN = 1, GA(N-35)
[10] = CD86_rs1129055, GEN = 2, GA(N-35)
[11] = CD86_rs2001791, GEN = 0, GA(N = 48)
[12] = CD86_rs2001791, GEN = 1, GA(N = 48)
[13] = CD86_rs2001791, GEN = 2, GA(N = 48)
[14] = CD95_rs9827641, GEN = 0, GA(N-47)
[15] = CD95_rs9827641, GEN = 1, GA(N-47)
[16] = CTSS_rs1415148, GEN = 0, GA(N = 47)
[17] = CTSS_rs1415148, GEN = 1, GA(N = 47)
[18] = CTSS_rs1415148, GEN = 2, GA(N = 47)
[19] = CTSS_rs2275235, GEN = 0, GA(N = 43)
[20] = CTSS_rs2275235, GEN = 1, GA(N = 43)
[21] = CTSS_rs2275235, GEN = 2, GA(N = 43)
[22] = MBP_rs470929, GEN = 0, GA(N-32)
[23] = MBP_rs470929, GEN = 1, GA(N-32)
[24] = MBP_rs470929, GEN = 2, GA(N-32)
[25] = TCRB_rs71878, GEN = 0, GA(N = 43)
[26] = TCRB_rs71878, GEN = 1, GA(N = 43)
[27] = TCRB_rs71878, GEN = 2, GA(N = 43)

glatiramer acetate [GA]
amelioration of graft rejection [1]: prolongation of skin graft survival and inhibition of functional deterioration of thyroid grafts
Th2 cell development and IL-10 production (dendritic cells): promotes T helper 2 (Th2) cell development and increased IL-10 production
percentage of responders out of carriers of genotype (RR-MS patients [2]; [6]): (35.29%)
responders/carriers of genotype (RR-MS patients [2]; [6]): 12/34
percentage of responders out of carriers of genotype (RR-MS patients [2]; [7]): 85.71%
responders/carriers of genotype (RR-MS patients [2]; [7]): 6/7
responders/carriers of genotype (RR-MS patients [2]; CD80_rs527004, GEN = 2, GA(N = 41)): 0/0
percentage of responders out of carriers of genotype (RR-MS patients [2]; [8]): (16.67%)
responders/carriers of genotype (RR-MS patients [2]; [8]): 3/18
percentage of responders out of carriers of genotype (RR-MS patients [2]; [9]): (60%)
responders/carriers of genotype (RR-MS patients [2]; [9]): 9/15
percentage of responders out of carriers of genotype (RR-MS patients [2]; [10]): (50%)
responders/carriers of genotype (RR-MS patients [2]; [10]): 1/2
percentage of responders out of carriers of genotype (RR-MS patients [2]; [11]): (28.21%)
responders/carriers of genotype (RR-MS patients [2]; [11]): 11/39
percentage of responders out of carriers of genotype (RR-MS patients [2]; [12]): 62.5%)
responders/carriers of genotype (RR-MS patients [2]; [12]): 5/8
percentage of responders out of carriers of genotype (RR-MS patients [2]; [13]): (100%)
responders/carriers of genotype (RR-MS patients [2]; [13]): 1/1
percentage of responders out of carriers of genotype (RR-MS patients [2]; [14]): (22.53%)
responders/carriers of genotype (RR-MS patients [2]; [14]): 5/24
percentage of responders out of carriers of genotype (RR-MS patients [2]; [15]): (31.25%)
responders/carriers of genotype (RR-MS patients [2]; [15]): 5/16
percentage of responders out of carriers of genotype (RR-MS patients [2]; CD95_rs9827641, GEN = 2, GA(N-47)): ((71.43%)^
percentage of responders out of carriers of genotype (RR-MS patients [2]; [16]): (15%)
responders/carriers of genotype (RR-MS patients [2]; [16]): 3/20
percentage of responders out of carriers of genotype (RR-MS patients [2]; [17]): (42.86%)
responders/carriers of genotype (RR-MS patients [2]; [17]): 9/21
percentage of responders out of carriers of genotype (RR-MS patients [2]; [18]): (83.33%)
responders/carriers of genotype (RR-MS patients [2]; [18]): 5/6
percentage of responders out of carriers of genotype (RR-MS patients [2]; [19]): (19.35%)
responders/carriers of genotype (RR-MS patients [2]; [19]): 6/31
percentage of responders out of carriers of genotype (RR-MS patients [2]; [20]): (66.67%)
responders/carriers of genotype (RR-MS patients [2]; [20]): 4/6
percentage of responders out of carriers of genotype (RR-MS patients [2]; [21]): (83.33%)
responders/carriers of genotype (RR-MS patients [2]; [21]): 5/6
percentage of responders out of carriers of genotype (RR-MS patients [2]; [22]): (18.18%)
responders/carriers of genotype (RR-MS patients [2]; [22]): 2/11
percentage of responders out of carriers of genotype (RR-MS patients [2]; [23]): (43.75%)
responders/carriers of genotype (RR-MS patients [2]; [23]): 7/16
percentage of responders out of carriers of genotype (RR-MS patients [2]; [24]): (100%)
responders/carriers of genotype (RR-MS patients [2]; [24]): 5/5
relapse rate and CNS activity (RR-MS): effectiveness in reducing relapse rate and CNS activity
binding to MHC class II molecules [3]: very rapid, high, and efficient binding
percentage of responders out of carriers of genotype (RR-MS patients [4]; [25]): 62.07%
responders/carriers of genotype (RR-MS patients [4]; [25]): 18/29
percentage of responders out of carriers of genotype (RR-MS patients [4]; [26]): (90%)
responders/carriers of genotype (RR-MS patients [4]; [26]): 9/10
percentage of responders out of carriers of genotype (RR-MS patients [4]; [27]): (100%)
responders/carriers of genotype (RR-MS patients [4]; [27]): 4/4
macroscopic colonic damage [5]: reduce macroscopic colonic damage
